# Experimental data: the supplement of paper PMC10307832
# Columns and labels:
# Experiment in all cases: relative viability (nuclei count vs DMSO), 5 days (fraction); higher = more cells survive
# [1] = compound: CN[C@@H]1C[C@H]2O[C@@](C)([C@@H]1OC)n1c3ccccc3c3c4c(c5c6ccccc6n2c5c31)C(=O)NC4 [Staurosporine] + Cc1nc(Nc2ncc(C(=O)Nc3c(C)cccc3Cl)s2)cc(N2CCN(CCO)CC2)n1 [Dasatinib] (partner 0.075 µM)
# Procedure, shortened: (§1)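 Values are medians from duplicate plates. Each reflects relative viability, defined as the nuclei count of treated wells over that of vehicle wells. Lung cancer cell lines in 1536-well plates were pin-tool dosed one day after seeding with one drug alone or with a fixed anchor-drug dose plus five library-drug doses (not always all listed) in √10 steps, then fixed, stained and imaged at 4× after 5 days.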
# [2] = compound: CN[C@@H]1C[C@H]2O[C@@](C)([C@@H]1OC)n1c3ccccc3c3c4c(c5c6ccccc6n2c5c31)C(=O)NC4 [Staurosporine] + CS(=O)(=O)N1CCN(Cc2cc3nc(-c4cccc5[nH]ncc45)nc(N4CCOCC4)c3s2)CC1 [Pictilisib] (partner 1 µM)
# Procedure, shortened: as §1
# Staurosporine + AZD7762 = compound: CN[C@@H]1C[C@H]2O[C@@](C)([C@@H]1OC)n1c3ccccc3c3c4c(c5c6ccccc6n2c5c31)C(=O)NC4 [Staurosporine] + NC(=O)Nc1cc(-c2cccc(F)c2)sc1C(=O)N[C@H]1CCCNC1 [AZD7762] (partner 0.2 µM)
# Procedure, shortened: as §1
# Sulindac + Dasatinib = compound: CC1=C(CC(=O)O)c2cc(F)ccc2/C1=C\c1ccc([S+](C)[O-])cc1 [Sulindac] + Cc1nc(Nc2ncc(C(=O)Nc3c(C)cccc3Cl)s2)cc(N2CCN(CCO)CC2)n1 [Dasatinib] (partner 0.075 µM)
# Procedure, shortened: as §1
Cell Line,relative viability ([1]; first compound 0.005 µM),relative viability ([1]; first compound 0.01581 µM),relative viability ([1]; first compound 0.05 µM),relative viability ([1]; first compound 0.1581 µM),relative viability ([1]; first compound 0.5 µM),relative viability ([2]; first compound 0.005 µM),relative viability ([2]; first compound 0.01581 µM),relative viability ([2]; first compound 0.05 µM),relative viability ([2]; first compound 0.1581 µM),relative viability ([2]; first compound 0.5 µM),relative viability (Staurosporine + AZD7762; first compound 0.005 µM),relative viability (Staurosporine + AZD7762; first compound 0.01581 µM),relative viability (Staurosporine + AZD7762; first compound 0.05 µM),relative viability (Staurosporine + AZD7762; first compound 0.1581 µM),relative viability (Staurosporine + AZD7762; first compound 0.5 µM),relative viability (Sulindac + Dasatinib; first compound 0.08 µM),relative viability (Sulindac + Dasatinib; first compound 0.253 µM),relative viability (Sulindac + Dasatinib; first compound 0.8 µM),relative viability (Sulindac + Dasatinib; first compound 2.53 µM),relative viability (Sulindac + Dasatinib; first compound 8 µM)
LCLC-97TM1,0.611,0.254,0.286,0.378,0.293,0.197,0.0972,0.152,0.119,0.153,0.225,0.121,0.169,0.176,0.141,0.996,0.951,0.637,0.711,0.998
LCLC-103H,0.307,0.108,0.113,0.134,0.103,0.495,0.211,0.274,0.193,0.158,0.827,0.41,0.334,0.231,0.194,0.5,0.477,0.376,0.458,0.508
LK-2,0.551,,0.271,0.139,0.121,0.789,0.812,0.466,0.199,0.0791,0.571,0.448,0.394,0.0558,0.0592,0.325,0.215,,,0.313
LOU-NH91,0.36,0.285,0.299,0.286,0.203,0.521,0.38,0.338,0.277,0.279,0.555,0.341,0.395,0.254,0.247,0.65,0.53,0.481,0.54,0.573
LU99A,0.353,0.227,0.176,0.191,0.112,0.187,0.158,0.186,0.122,0.114,0.327,0.135,0.205,0.153,0.0961,0.596,0.533,0.509,0.522,0.714
LXF-289,0.119,0.068,0.112,0.0474,0.0343,0.48,,0.111,0.0648,0.0482,0.903,0.157,0.298,0.0835,0.0894,0.24,0.223,0.227,0.25,0.225
NCI-H23,0.833,,0.259,0.13,0.154,0.319,0.114,,0.162,0.113,0.223,0.126,0.164,0.12,0.0804,0.856,,0.801,0.755,0.78
NCI-H322M,0.365,0.401,0.324,0.277,0.273,0.683,0.384,0.312,0.309,0.252,0.552,0.456,0.527,0.393,0.425,0.26,0.244,0.268,0.244,0.275
NCI-H358,0.373,0.072,0.178,0.0752,0.0597,0.317,0.261,0.162,0.141,0.139,0.339,0.378,0.253,0.195,0.172,0.125,0.128,0.191,0.155,0.19
NCI-H441,0.705,0.326,0.572,0.163,0.082,0.426,0.152,0.178,0.155,0.12,0.86,0.538,0.315,0.293,0.165,0.592,0.643,0.406,0.647,0.83
NCI-H460,0.575,0.27,0.375,0.0523,0.009,0.316,,0.228,0.0535,0.0424,0.656,0.532,0.741,0.0465,0.0251,0.616,0.461,0.482,0.489,0.658
NCI-H596,0.7,0.467,0.276,0.226,0.183,0.407,0.222,0.198,0.129,0.105,1.08,0.769,0.471,0.28,0.303,0.563,0.56,0.6,0.666,0.641
NCI-H647,0.0983,0.0707,0.0669,0.073,0.0532,0.292,0.125,0.148,0.118,0.0831,0.296,0.102,0.121,0.0587,0.05,0.257,0.201,0.126,0.194,0.247
NCI-H650,0.284,0.264,0.271,0.229,0.223,0.416,0.297,0.344,0.24,0.233,0.432,0.304,0.273,0.227,0.306,0.52,0.462,0.469,0.466,0.47
NCI-H727,0.47,0.579,0.363,0.235,0.184,0.486,0.293,0.2,0.223,0.12,0.622,0.412,0.55,0.466,0.461,0.345,0.333,,0.394,0.412
NCI-H838,0.267,0.203,0.225,0.177,0.178,0.19,0.151,0.172,0.144,0.126,0.776,0.644,0.643,0.693,0.675,0.275,0.334,0.311,0.281,0.34
